# Molecular target: T1, sGC α1/β1 heterodimer (Homo sapiens, UniProt Q02108+Q02153)
# T1 construct: expressed in transfected cells
# T1 sequence (Q02108 1-690): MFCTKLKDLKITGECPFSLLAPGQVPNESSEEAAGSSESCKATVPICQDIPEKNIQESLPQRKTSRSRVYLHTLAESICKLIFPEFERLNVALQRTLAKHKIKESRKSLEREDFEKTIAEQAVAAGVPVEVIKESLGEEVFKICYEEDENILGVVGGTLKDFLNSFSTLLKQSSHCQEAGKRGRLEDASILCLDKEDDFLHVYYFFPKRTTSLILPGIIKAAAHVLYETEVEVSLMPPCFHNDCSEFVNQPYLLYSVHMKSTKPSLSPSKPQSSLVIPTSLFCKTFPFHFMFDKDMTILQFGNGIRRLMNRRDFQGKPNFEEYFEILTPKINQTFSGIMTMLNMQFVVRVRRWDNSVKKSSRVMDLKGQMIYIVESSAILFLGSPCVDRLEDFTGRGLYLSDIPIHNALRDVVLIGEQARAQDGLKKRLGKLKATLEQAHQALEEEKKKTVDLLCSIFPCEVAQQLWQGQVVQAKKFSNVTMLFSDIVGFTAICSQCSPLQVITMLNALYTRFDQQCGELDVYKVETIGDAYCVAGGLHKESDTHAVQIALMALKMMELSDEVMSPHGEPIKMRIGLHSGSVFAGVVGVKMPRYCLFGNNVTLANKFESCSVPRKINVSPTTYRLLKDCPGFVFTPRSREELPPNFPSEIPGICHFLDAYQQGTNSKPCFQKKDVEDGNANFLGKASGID
# T1 sequence (Q02153 1-619): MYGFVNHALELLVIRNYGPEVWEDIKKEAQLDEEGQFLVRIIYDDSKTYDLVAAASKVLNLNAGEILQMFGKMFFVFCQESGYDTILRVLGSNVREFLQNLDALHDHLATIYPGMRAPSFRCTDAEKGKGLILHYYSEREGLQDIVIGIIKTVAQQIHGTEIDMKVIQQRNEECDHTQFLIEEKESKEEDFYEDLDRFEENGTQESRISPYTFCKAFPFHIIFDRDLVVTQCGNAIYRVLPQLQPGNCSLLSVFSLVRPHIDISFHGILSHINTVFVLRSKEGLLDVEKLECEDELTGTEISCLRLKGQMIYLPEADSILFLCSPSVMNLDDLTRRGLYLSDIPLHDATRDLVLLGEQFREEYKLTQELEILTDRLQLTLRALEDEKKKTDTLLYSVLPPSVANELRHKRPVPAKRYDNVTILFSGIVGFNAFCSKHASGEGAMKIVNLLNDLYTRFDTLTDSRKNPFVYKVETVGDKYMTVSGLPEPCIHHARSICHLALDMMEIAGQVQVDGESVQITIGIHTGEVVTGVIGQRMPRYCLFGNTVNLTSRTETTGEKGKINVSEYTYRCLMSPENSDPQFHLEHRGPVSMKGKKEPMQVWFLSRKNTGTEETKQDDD
# Assay: Cell-Based sGC Functional Assay (CASA Assay), cGMP generation in CHO-K1/sGC cells
# Details: maximum cGMP production of Compound A set to 100% activation, read-out: % Act. (percent activation relative to Compound A)
# From the text: sGC is a heme-containing enzyme that converts GTP to secondary messenger cGMP. Increases in cGMP levels affect several physiological processes including vasorelaxation through multiple downstream pathways. […] Heme-dependent activators (HDAs) preferentially activate sGC containing a ferrous heme group. To determine the effect of sGC activators on enzyme activity, the CASA assay was developed to monitor the generation of cGMP in a cell line that stably expresses the heterodimeric sGC protein.
# A CHO-K1 cell line stably expressing the sGC α1/β1 heterodimer was generated using a standard transfection protocol. CHO-K1 cells were transfected with plasmids pIREShyghsGCα1 and pIRESneo-hsGCβ1 simultaneously using FUGENE reagent. Clones that stably express both subunits were selected with hygromycin and neomycin for ˜2 weeks. Clone #7 was chosen for the assay and was designated CHO-K1/sGC. CHO-K1/sGC cells were maintained in F-K12 medium containing 10% heat-inactivated Fetal Bovine Serum (FBS), 100 μg/mL penicillin/streptomycin, 0.5 mg/mL hygromycin and 0.25 mg/mL G418. The cells were then cryopreserved in LN2. On the day of the assay, cells thawed and resuspended in EBSS Assay Buffer (Sigma, E3024) supplemented with 5 mM MgCl2, 10 mM HEPES (4-(2-hydroxyethyl)piperazine-1-ethanesulfonic acid) and 0.05% BSA (bovine serum albumin) (EAB) and cell density was then adjusted to 4×10^5/mL with EAB. IBMX (3-isobutyl-1-methylxanthin, 0.5 mM) was added to inhibit degradation of cGMP. Compounds were diluted from DMSO stock solutions and added to the assay at a final DMSO concentration of 2.5%. Cells were incubated with compounds in the presence and absence of 1 μM of Diethylenetriamine/nitric oxide adduct (DETA-NO; Sigma, 17018) for 1 hr at 37° C. At the end of the incubation period, the reaction was terminated and the cells were lysed with the detection reagents from Cisbio Kits. The level of intracellular cGMP was determined using an HTRF-based assay kit (CisBio, 62GM2PEC), which detects the displacement of a fluorescence labeled cGMP from its specific antibody. The cGMP produced by test compounds was directly compared to the maximum cGMP production (this value was set to equal 100% activation.) of the published sGC-HDA Compound A:
# [drawing 298] (Example 1 in WO 2010/065275, published Jun. 10, 2010). The test compounds' activities were then expressed as a percentage of Compound A, the standard in every experiment. This percent activation was calculated either in the presence or absence of DETA-NO which was then plotted. IP and maximum fold induction was derived using ADA analysis software for 4P fit.
row,SMILES,Emax
1,"C[C@@]1(c2ccc(F)cc2)C(=O)Nc2nc(-c3cn4ncnc4c(CCC(F)(F)F)n3)ncc21 [Example 174A, (S)-5-(4-fluorophenyl)-5-methyl-2-(8-(3,3,3-trifluoropropyl)-[1,2,4]triazolo[1,5-a]pyrazin-6-yl)-5,7-dihydro-6H-pyrrolo[2,3-d]pyrimidin-6-one]",133%
2,"Cc1nc2c(CCC(F)(F)C(F)(F)F)nc(-c3nc(N)c4c(n3)NC(=O)C4(C)c3ccc(Cl)c(F)c3)cn2n1 (centres unmarked) [Example 90B, 4-amino-5-(4-chloro-3-fluorophenyl)-5-methyl-2-(2-methyl-8-(3,3,4,4,4-pentafluorobutyl)-[1,2,4]triazolo[1,5-a]pyrazin-6-yl)-5H-pyrrolo[2,3-d]pyrimidin-6(7H)-one]",135%
3,"CCCc1nc(-c2nc(N)c3c(n2)NC(=O)C3(C)c2ccc(F)cn2)cn2nc(C)nc12 (centres unmarked) [Example 92B, 4-amino-5-(5-fluoropyridin-2-yl)-5-methyl-2-(2-methyl-8-propyl-[1,2,4]triazolo[1,5-a]pyrazin-6-yl)-5H-pyrrolo[2,3-d]pyrimidin-6(7H)-one]",167%
4,"Cc1nc(C2(C)C(=O)Nc3nc(-c4cn5ncnc5c(CCCC(F)(F)F)n4)nc(N)c32)ccc1C(F)(F)F (racemic) [Example 49B, 4-amino-5-methyl-5-(6-methyl-5-(trifluoromethyl)pyridin-2-yl)-2-(8-(4,4,4-trifluorobutyl)-[1,2,4]triazolo[1,5-a]pyrazin-6-yl)-5H-pyrrolo[2,3-d]pyrimidin-6(7H)-one]",127%
5,"CC1(c2nnc(C(F)(F)F)o2)C(=O)Nc2nc(-c3cn4ncnc4c(CCCC(F)(F)F)n3)nc(N)c21 (centres unmarked) [Example 101A, 4-amino-5-methyl-2-(8-(4,4,4-trifluorobutyl)-[1,2,4]triazolo[1,5-a]pyrazin-6-yl)-5-(5-(trifluoromethyl)-1,3,4-oxadiazol-2-yl)-5H-pyrrolo[2,3-d]pyrimidin-6(7H)-one]",154%
6,"N#Cc1ccc(C2(C3CC3)C(=O)Nc3nc(-c4cn5ncnc5c(CCCC(F)(F)F)n4)nc(N)c32)nc1 (centres unmarked) [Example 117A, 6-(4-Amino-5-cyclopropyl-6-oxo-2-(8-(4,4,4-trifluorobutyl)-[1,2,4]triazolo[1,5-a]pyrazin-6-yl)-6,7-dihydro-5H-pyrrolo[2,3-d]pyrimidin-5-yl)nicotinonitrile]",140%
7,"CCCCc1nc(-c2nc(O)c3c(n2)NC(=O)C3(C)c2ccc(C)cn2)cn2ncnc12 (centres unmarked) [Example 161B, 2-(8-butyl-[1,2,4]triazolo[1,5-a]pyrazin-6-yl)-4-hydroxy-5-methyl-5-(5-methylpyridin-2-yl)-5H-pyrrolo[2,3-d]pyrimidin-6(7H)-one]",95%
8,"CC1(c2nnc(C3CC3)o2)C(=O)Nc2nc(-c3cn4ncnc4c(CCCC(F)(F)F)n3)nc(N)c21 (centres unmarked) [Example 99A, 4-amino-5-(5-cyclopropyl-1,3,4-oxadiazol-2-yl)-5-methyl-2-(8-(4,4,4-trifluorobutyl)-[1,2,4]triazolo[1,5-a]pyrazin-6-yl)-5H-pyrrolo[2,3-d]pyrimidin-6(7H)-one]",113%
9,"Cc1ccc(C2(C3CC3)C(=O)Nc3nc(-c4cn5ncnc5c(CCCC(F)(F)F)n4)nc(N)c32)nc1 (racemic) [Example 47B, 4-amino-5-cyclopropyl-5-(5-methylpyridin-2-yl)-2-(8-(4,4,4-trifluorobutyl)-[1,2,4]triazolo[1,5-a]pyrazin-6-yl)-5H-pyrrolo[2,3-d]pyrimidin-6(7H)-one]",114%
10,"Cc1nc2c(CCC(F)(F)C(F)(F)F)nc(-c3nc(O)c4c(n3)NC(=O)[C@@]4(C)c3ccc(F)cc3)cn2n1 [Example 133B, (S)-5-(4-fluorophenyl)-4-hydroxy-5-methyl-2-(2-methyl-8-(3,3,4,4,4-pentafluorobutyl)-[1,2,4]triazolo[1,5-a]pyrazin-6-yl)-5H-pyrrolo[2,3-d]pyrimidin-6(7H)-one]",87%

# Second part, the molecule after the results:
row,Emax,SMILES
1,122%,"CCCc1nc(-c2nc(N)c3c(n2)NC(=O)C3(C)c2ccc(Cl)cc2)cn2ncnc12 (centres unmarked) [Example 53A, 4-amino-5-(4-chlorophenyl)-5-methyl-2-(8-propyl-[1,2,4]triazolo[1,5-a]pyrazin-6-yl)-5H-pyrrolo[2,3-d]pyrimidin-6(7H)-one]"
2,161%,"CCCCc1nc(-c2nc(O)c3c(n2)NC(=O)C3(C)c2ccc(Cl)cc2)cn2ncnc12 (centres unmarked) [Example 157A, 2-(8-butyl-[1,2,4]triazolo[1,5-a]pyrazin-6-yl)-5-(4-chlorophenyl)-4-hydroxy-5-methyl-5H-pyrrolo[2,3-d]pyrimidin-6(7H)-one]"
3,267%,"CCCCc1nc(-c2nc(N)c3c(n2)NC(=O)C3(C)c2ccc(Cl)c(F)c2)cn2ncnc12 (centres unmarked) [Example 62B, 4-amino-2-(8-butyl-[1,2,4]triazolo[1,5-a]pyrazin-6-yl)-5-(4-chloro-3-fluorophenyl)-5-methyl-5H-pyrrolo[2,3-d]pyrimidin-6(7H)-one]"
4,163%,"C[C@@]1(c2ccc(F)cc2)C(=O)Nc2nc(-c3cn4ncnc4c(CCCC(F)(F)F)n3)nc(N)c21 [Example 23A, (S)-4-amino-5-(4-fluorophenyl)-5-methyl-2-(8-(4,4,4-trifluorobutyl)-[1,2,4]triazolo[1,5-a]pyrazin-6-yl)-5,7-dihydro-6H-pyrrolo[2,3-d]pyrimidin-6-one]"
5,136%,"CC1(c2ccc(Cl)c(F)c2)C(=O)Nc2nc(-c3cn4ncnc4c(CCC(F)(F)F)n3)nc(N)c21 (centres unmarked) [Example 75B, 4-amino-5-(4-chloro-3-fluorophenyl)-5-methyl-2-(8-(3,3,3-trifluoropropyl)-[1,2,4]triazolo[1,5-a]pyrazin-6-yl)-5H-pyrrolo[2,3-d]pyrimidin-6(7H)-one]"
6,82%,"CCCCc1nc(-c2nc(N)c3c(n2)NC(=O)C3(c2ccc(C)cn2)C2CC2)cn2ncnc12 (racemic) [Example 72B, 4-amino-2-(8-butyl-[1,2,4]triazolo[1,5-a]pyrazin-6-yl)-5-cyclopropyl-5-(5-methylpyridin-2-yl)-5H-pyrrolo[2,3-d]pyrimidin-6(7H)-one]"
7,96%,"CCCc1nc(-c2nc(N)c3c(n2)NC(=O)[C@@]3(C)c2ccc(F)cc2)cn2ncnc12 [Example 52A, (S)-4-amino-5-(4-fluorophenyl)-5-methyl-2-(8-propyl-[1,2,4]triazolo[1,5-a]pyrazin-6-yl)-5,7-dihydro-6H-pyrrolo[2,3-d]pyrimidin-6-one]"

# — patent US10925876B2, “Methods for using triazolo-pyrazinyl soluble guanylate cyclase activators in fibrotic disorders” (Merck Sharp & Dohme Corp., priority 2016, dated 2021)
